This is an account of results in US8603945B2, “Methods and compositions for providing salicyclic acid-independent pathogen resistance in plants” (The Regents of the University of California, priority 2008, dated 2013).

For assay [1], the system named is Pst DC3000. The assay can be described thus: Pst DC3000 disease symptoms in cherry tomato seedlings (swab inoculation). It counts as in vivo. To be noted: 500 uM, sprayed two days prior to inoculation. As to the method:
(§1) (A &B) 14 day old soil grown Arabidopsis Col-0 seedlings were pre-treated with 100 uM of the indicated chemical then dip inoculated with Pst DC3000. (A) Photos taken 5 dpi. (B) Quantification of Pst DC3000 growth by counting colony forming units (cfu) at day 0 (grey bars) or day 3 (black bars). Significant differences were determined by Mann-Whitney U tests (p<0.05). (C) Pst DC3000 grown in liquid culture with 100 um of the indicated chemicals or 100 ug/ml hygromycin (HYG). OD600 reflecting bacterial density was measured at indicated times (hours) after inoculation. Standard errors were all less than 0.05 so are not visible on the graph. (D) Two week old cherry tomato seedlings sprayed 0.5 mM DCA, 4 mM SA or mock-treated two days prior to swab inoculation with Pst DC3000 (OD600=0.4). Photos were taken 6 days after Pst challenge.

Assay [2] relates to Pst DC3000. The assay can be described thus: Pst DC3000 growth in liquid culture (OD600). In kind it is cell-based, Pseudomonas syringae. To be noted: 100 um in liquid culture.
For assay [3], the system named is Pseudomonas syringae DC3000 (Pst DC3000). Kind of assay: Pst DC3000 disease resistance in Arabidopsis seedlings (dip inoculation, cfu). It counts as in vivo. Particulars: 100 uM. As to the method: as §1

`Nc1c(Cl)cc(Cl)cc1C(=O)O` [DCA, 3,5-Dichloroanthranilic acid]: in the assay with Pst DC3000 [1], the “Pst DC3000 mediated disease symptoms in tomato” value is recorded as “suppressed Pst DC3000 mediated disease symptoms such as chlorosis”. In the assay with Pst DC3000 [2], the “growth of Pst DC3000 in in vitro cultures” value is “does not affect growth”. For the same compound, the “disease resistance to Pst DC3000” value in assay [3] (Arabidopsis Col-0) is reported as “triggered disease resistance”. The “suppression of bacterial growth (cfu) compared with SA and INA” value in assay [3] (day 3) is “more efficiently than SA or the frequently used SA analog INA”.
